Results from patent publication US12636370B2, “Combination therapy for treatment of cancer” (Institute For Cancer Research, priority 2019, dated 2026).

How the values were obtained:
Format in all cases: cell-based
[1] = test system: OVCAR8 cells; test: CellTiter-Glo cell viability, OVCAR8 parental cells; conditions: dose escalation, 5 days
[2] = test system: BET proteins (BRD2, BRD3, BRD4); test: Western blot of BET protein levels, OVCAR8 parental cells
[3] = test system: OVCAR8 cells; test: Single-run proteome analysis and RNA-seq, OVCAR8 cells; conditions: 48 hours, single-run proteome analysis
Procedure: Enrichment maps of pathways repressed by short-term BBD generated from single-run proteome profiles of OVCAR8 cells treated with BBDs (MZ1 or ARV825) for 48 hours were prepared (data not shown). Statistical differences in protein log 2 LFQ z-scores comparing BBDs or BBIs to control treated cells was determined by paired T-Test Benjamini-Hochberg adjusted p values at FDR of <0.05 using Perseus Software. […] Enrichment maps were generated in Cytoscape using the Enrichment Map app v2.2.1. […] Statistical differences in protein log 2 LFQ z-scores comparing BBDs or BBIs to control treated cells was determined.

[4] = test system: translation markers, RNA pol II, MYC; test: Western blot of translation, BRD4-targets and MYC signaling, OVCAR8 cells; conditions: 500 nM, 48 hours
[5] = test system: kinome; test: MIB-MS kinome profiling, OVCAR8 cells; conditions: 48 hours
[6] = test system: RTKs, EGFR, ERBB2, ERBB3, FGFR1, and IGF1R; test: Western blot of kinase (RTK) protein levels, OVCAR8 cells; conditions: 500 nM, 48 hours
[7] = test system: RTKs FGFR1, FGFR2, FGFR3, IGF1R and ERBB4; test: Western blot of RTK protein levels, KURAMOCHI and COV362 cells; conditions: 500 nM, 48 hours
[8] = test system: OVCAR8 MZ1-R cells; test: CellTiter-Glo cell viability, OVCAR8 MZ1-R cells; conditions: OVCAR8 MZ1-R, escalating doses, 5 days
[9] = test system: OVCAR8 ARV-R cells; test: CellTiter-Glo cell viability, OVCAR8 ARV-R cells; conditions: escalating doses, 5 days
[10] = test system: OVCAR8 JQ1-R cells; test: CellTiter-Glo cell viability, OVCAR8 JQ1-R cells; conditions: escalating doses, 5 days
[11] = test system: BET proteins (BRD2, BRD3, BRD4); test: Western blot of BET proteins and BRD4 targets, OVCAR8 MZ1-R cells; conditions: Western blot
[12] = test system: BET proteins (BRD2, BRD3, BRD4); test: Western blot of BET proteins, OVCAR8 ARV-R cells
[13] = test system: BET proteins, FOSL1, MYC; test: Western blot of BET proteins and BRD4 targets, JQ1-R cells
[14] = test system: OVCAR8 ARV-R cells; test: Apoptosis by cleaved PARP Western blot, OVCAR8 ARV-R cells
[15] = test system: OVCAR8 JQ1-R cells; test: Apoptosis by cleaved PARP Western blot, OVCAR8 JQ1-R cells
[16] = test system: PEO1 JQ1-R cells; test: CellTiter-Glo cell viability, PEO1 JQ1-R cells; conditions: escalating doses, 5 days
[17] = test system: KURAMOCHI, COV362 and OVCAR5 MZ1-R cells; test: CellTiter-Glo cell viability, KURAMOCHI, COV362 and OVCAR5 MZ1-R cells; conditions: COV362 and OVCAR5, escalating doses, 5 days
[18] = test system: BET proteins (BRD2, BRD4); test: Western blot of BET proteins, KURAMOCHI, COV362 and OVCAR5 MZ1-R cells
[19] = test system: OVSAHO cells; test: Combination treatment of OVSAHO cells; conditions: BRD4 overexpressing HGSOC cell line OVSAHO
[20] = test system: SW48 (KRAS WT) cells; test: Cell-Titer Glo cell viability, SW48 (KRAS WT) cells
Procedure: (§1) K-ras mutations promote resistance to BET protein degraders that can be overcome by MTORC1 inhibitors. Briefly, isogenic SW48 colorectal cancer cells expressing wild-type or mutant (G12D) K-ras were treated with increasing doses of MZ1 and cell viability was assessed. Expression of K-ras mutants promote resistance to MZ1 therapy (FIG. 18, Panel A). Immunoblot analysis depicts activation of translation by forced expression of K-ras G12D mutants in SW48 cells (FIG. 18, Panel B). SW48 cells expressing wild-type or K-ras G12D mutants were treated with DMSO, 2 μM RAD001, increasing doses of MZ1 or 2 μM RAD001+increasing doses of MZ1 for 4 hours and BRD4 protein assessed by Western blot. A Cell-Titer Glo assay was performed for cell viability of SW48 (KRAS G12D) cell lines treated with increasing concentrations of RAD001, MZ1 or the combination of RAD001 and MZ1 and cultured for 120 hours. Data were analyzed as % cell viability of DMSO control, presented as means of 3 independent assays. […] Data were analyzed as % cell viability of DMSO control, presented as means of 3 independent assays. […]

[21] = test system: SW48 (KRAS G12D) cells; test: Cell-Titer Glo cell viability, SW48 (KRAS G12D) cells
Procedure: as §1

[22] = target: T1, BRD4 (Homo sapiens, UniProt O60885); test: Western blot of BRD4 protein, SW48 K-ras G12D cells; conditions: 4 hours
T1 construct: endogenous in cells
Procedure: as §1

Question: With `Cc1ncsc1-c1ccc(CNC(=O)[C@@H]2C[C@@H](O)CN2C(=O)[C@@H](NC(=O)COCCOCCOCCNC(=O)C[C@@H]2N=C(c3ccc(Cl)cc3)c3c(sc(C)c3C)-n3c(C)nnc32)C(C)(C)C)cc1` [MZ1] as the compound, how does the GI50 [1] read?
Answer: 142 nM

Question: And the BET protein levels [2]?
Answer: degraded BET proteins in a concentration-dependent manner

Question: And the “global protein level changes” value [3]?
Answer: uniquely downregulated proteins involved in ribosome and translation signaling

Question: What about the MYC protein levels [4] of the same compound?
Answer: reduced MYC protein levels

Question: What about the “phosphorylation of translation markers” value ([4]; relative to cis-MZ1 or JQ1) of the same compound?
Answer: distinctly reduced phosphorylation of FOX01/3 (T24/32), P70S6 Kinase (T389), pEIF4E (S209) and p4EBP1 (T37/46)

Question: What about the “kinase MIB-binding” value [5] of the same compound?
Answer: uniquely increased MIB-binding of INSR, CDK7, EPHA4 and EPHA2

Question: And the RTK protein levels [6]?
Answer: MZ1-specific reduction of RTKs, EGFR, ERBB2, ERBB3, FGFR1, and IGF1R

Question: What about the RTK protein levels [7] of the same compound?
Answer: downregulation of RTKs protein levels such as FGFR1, FGFR2, FGFR3, IGF1R and ERBB4

Question: And the “cell viability of MZ1-R cells compared with parental cells” value [8]?
Answer: rightward shift

Question: And the “cell viability of ARV-R cells compared with parental cells” value [9]?
Answer: failed to reduce BET proteins, block growth or induce apoptosis

Question: What about the “cell viability of JQ1-R cells” value [10] of the same compound?
Answer: inhibited cell viability

Question: What about the BET protein levels [11] of the same compound?
Answer: insufficient to degrade BRD2, BRD3 or BRD4

Question: What about the BET protein levels [12] of the same compound?
Answer: failed to reduce BET proteins, block growth or induce apoptosis

Question: And the BET protein levels [13]?
Answer: degraded BET proteins

Question: What about the “BRD4 target (FOSL1, MYC) protein levels” value [13] of the same compound?
Answer: reduced MYC/FOSL1 protein levels

Question: And the apoptosis [14]?
Answer: failed to reduce BET proteins, block growth or induce apoptosis

Question: And the apoptosis [15]?
Answer: induced apoptosis

Question: What about the “cell killing / viability” value [16] of the same compound?
Answer: can be killed by treatment with BET PROTAC MZ1

Question: And the “cell viability / growth of MZ1-R cells compared with parental cells” value [17]?
Answer: rightward shift

Question: And the BET protein levels [18]?
Answer: failed to mediated degradation of BET proteins

Question: What about the “dose sufficient to induce sensitivity towards GSK529A, lapatinib or RAD001” value [19] of the same compound?
Answer: 10 nM

Question: And the inhibition of viability ([20]; SW48 K-Ras WT cells, single agent, low concentrations)?
Answer: > 50%

Question: What about the GI50 ([20]; SW48 parental (wild-type K-Ras) cells) of the same compound?
Answer: 0.63 nM

Question: What about the GI50 ([21]; SW48 cells harboring K-Ras G12D mutation) of the same compound?
Answer: 63 nM

Question: What about the “shift in GI50, K-Ras mutant vs parental cells” value ([21]; SW48 isogenic cells) of the same compound?
Answer: 10 fold

Question: What about the BRD4 degradation [22] of the same compound?
Answer: impaired the degradation of BRD4
